Laboratory results as given in patent US20210145775A1, “Treatment of intestinal barrier dysfunction and associated diseases” (CymaBay Therapeutics, Inc., priority 2019, published 2021).

Key:
[1] = tested on: wild-type female C57BL/6 mice; test: Preclinical Lieber-DeCarli ethanol diet mouse model (alcoholic liver disease / intestinal barrier function); format: in vivo
Text: Age-matched wild-type female C57BL/6 mice (Charles River, Wilmington, Mass.), 8-9 weeks old at the initiation of the study, were used.
The Lieber-DeCarli ethanol diet was originally developed by Charles Lieber and Leonore DeCarli in 1963. This diet allows for the prolonged exposure of ethanol in a rodent model and allows for modification to calories provided by ethanol. […] The caloric intake from ethanol was 0% on day 1, 10% on days 2 and 3, 20% on days 4 and 5, 30% from day 6 until the end of 6 weeks, and 36% for the last 2 weeks, for a total in-life time of eight weeks. The ethanol-fed mice also received one bolus dose of 33% v/v ethanol at 5 g/Kg on the last in-life day. The control diet contained an isocaloric substitution of isomaltose for the ethanol. […] In the prevention portions of the study, including with the control diet, seladelpar was added throughout the entire study period; in the intervention portion of the study, seladelpar was added only for the fifth through eighth weeks. Fresh feces were collected at 7.5 weeks. All mice were sacrificed after eight weeks; the ethanol-fed mice eight hours after the ethanol bolus. At sacrifice, body and liver weight were recorded; and blood/plasma, liver, gallbladder, small and large intestine (wall and contents) and cecum were harvested. Analyses included plasma ALT—to measure […]; hepatic TGs; plasma lipopolysaccharides (LPS)—to measure the extent of bacterial leakage from the intestine into the blood; fecal albumin (FA)—to measure the extent of albumin leakage from the blood into the intestine (feces); and total bile acids, measured by liquid chromatography-mass spectrometry (LC-MS) generally according to the method described in Hartmann et al., “Modulation of the Intestinal Bile Acid/Farnesoid X Receptor/Fibroblast Growth Factor 15 Axis Improves Alcoholic Liver Disease in Mice”, Hepatology, 67(6), 2150-2166 (2018).
The study results are given in the table below: standard errors of the means are in parentheses, n denotes the number of mice measured, and ANOVA denotes the significance value of an ANOVA analysis between groups 3, 4, and 5:
Formalin-fixed liver sections were stained for histological examination with hematoxylin and eosin (H+E).

[2] = tested on: male RAG2−/− mice on C57BL/6 background; test: Preclinical adoptive T-cell transfer colitis; format: in vivo; details: 10 mg/Kg/day in drinking water, day 14 to day 42
Text: The cell donor animals are male C57BL/6 mice and the recipient animals are male RAG2^−/− mice on C57BL/6 background, aged 6-8 weeks at the start of the study. Recipient animals (20 +12 per test compound) are assigned: 5 to form a control group receiving no cell transfer or treatment, and the remainder to receive cell transfer. At day 0, the donor animals are sacrificed and spleens excised, dissociated to a single cell suspension, and the red blood cells lysed. The cell suspension is enriched for CD4+ T cells using a Miltenyi CD4+ T cell isolation kit, then further enriched for naïve CD4+ T cells using a Miltenyi naïve CD4+ T cell isolation kit. […] The animals are weighed daily and assessed visually for presence and severity of diarrhea and bloody stools, with video endoscopy on days 14, 28, and 42 to assess the severity of the colitis and score stool consistency. All animals are sacrificed at day 42 following endoscopy and samples collected: blood is collected and processed for plasma, the colon is excised, measured, rinsed, weighed, and trimmed to the most distal 5 cm, of this distal and proximal 2 cm portions are placed in formalin for histological evaluation, while the central 1 cm is snap-frozen in liquid nitrogen, and stored for analysis; and the liver is excised, weighed, snap-frozen in liquid nitrogen, and stored for analysis.

[3] = tested on: Subjects with diagnosed irritable bowel syndrome (IBS); test: Clinical (oral) treatment of irritable bowel syndrome; format: in vivo, human
Protocol: The subjects keep a health diary in which their symptoms of irritable bowel syndrome are recorded.

PPARα = biological target: T1, PPARα (Homo sapiens, UniProt Q07869); details: cited from earlier work
T1 sequence (Q07869 1-468): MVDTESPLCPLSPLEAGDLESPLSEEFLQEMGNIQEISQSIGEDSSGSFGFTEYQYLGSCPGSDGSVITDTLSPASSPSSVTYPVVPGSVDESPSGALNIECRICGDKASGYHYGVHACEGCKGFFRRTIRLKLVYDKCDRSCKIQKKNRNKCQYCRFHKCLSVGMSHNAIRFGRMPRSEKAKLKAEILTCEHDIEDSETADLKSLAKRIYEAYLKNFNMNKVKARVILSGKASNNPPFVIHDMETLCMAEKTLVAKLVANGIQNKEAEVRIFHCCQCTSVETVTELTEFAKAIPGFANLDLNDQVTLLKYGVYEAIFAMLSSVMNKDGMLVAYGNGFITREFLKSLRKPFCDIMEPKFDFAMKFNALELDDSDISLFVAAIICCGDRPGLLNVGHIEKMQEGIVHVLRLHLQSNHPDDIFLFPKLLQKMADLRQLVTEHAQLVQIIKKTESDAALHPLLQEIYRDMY

[4] = tested on: atherogenic diet-fed obese diabetic (Alms1 mutant (foz/foz)) mice; details: cited from earlier work
[5] = alcohol diet, groups 4 and 5 vs untreated group 3, ANOVA

CCO[C@H](COc1ccc(C(F)(F)F)cc1)CSc1ccc(OCC(=O)O)c(C)c1 [seladelpar]
liver histology (H+E) ([1]; alcohol diet, prevention and intervention, comparing group 3 with groups 4 and 5): significant reduction of steatosis and restoration of a more normal architecture | serum ALT, change versus untreated ([1]; alcohol diet, groups 4 and 5 (prevention and intervention) vs untreated group 3, ANOVA): significant reductions (improvements) | fecal albumin, change versus untreated [1, 5]: significant reduction (improvement) | hepatic TGs, change versus untreated [1, 5]: significant reductions (improvements) | serum LPS, change versus untreated [1, 5]: significant reductions (improvements) | total bile acids, change versus untreated [1, 5]: significant reductions (improvements) | effect on ALT, hepatic TGs, plasma LPS, FA and total bile acids (any of the above parameters) ([1]; control diet groups, seladelpar prevention (group 2 vs group 1)): did not significantly affect | liver histology (H+E) ([1]; control diet, comparing groups 1 and 2): no significant change | colitis (body weight, endoscopic and histologic examination) [2]: ameliorates the colitis | IBS symptoms recorded in health diary ([3]; 2, 5, 10, 20, 50 or 100 mg/day oral for 12 weeks): general improvement in their IBS symptoms | improvement of disease (management of IBS, gastrointestinal symptoms) ([3]; 2-100 mg/day oral for 12 weeks): dose-related improvement in their disease | specificity for PPARδ compared with PPARα (PPARα): > 600 fold | NASH pathology (hepatic steatosis, inflammation, fibrosis) [4]: improves NASH pathology
